Source: patent US20060258598A1, “Alpha-keto carbonyl calpain inhibitors” (priority 2003, published 2006)

Tests used:
human μ-calpain = biological target: T1, human μ-calpain (Homo sapiens, UniProt P07384); assay: Enzymatic calpain inhibition assay; assay type: biochemical; conditions: substrate Suc-Leu-Tyr-AMC, read-out: Calp I IC50
T1 construct: purchased Calbiochem
T1 sequence (P07384 1-714): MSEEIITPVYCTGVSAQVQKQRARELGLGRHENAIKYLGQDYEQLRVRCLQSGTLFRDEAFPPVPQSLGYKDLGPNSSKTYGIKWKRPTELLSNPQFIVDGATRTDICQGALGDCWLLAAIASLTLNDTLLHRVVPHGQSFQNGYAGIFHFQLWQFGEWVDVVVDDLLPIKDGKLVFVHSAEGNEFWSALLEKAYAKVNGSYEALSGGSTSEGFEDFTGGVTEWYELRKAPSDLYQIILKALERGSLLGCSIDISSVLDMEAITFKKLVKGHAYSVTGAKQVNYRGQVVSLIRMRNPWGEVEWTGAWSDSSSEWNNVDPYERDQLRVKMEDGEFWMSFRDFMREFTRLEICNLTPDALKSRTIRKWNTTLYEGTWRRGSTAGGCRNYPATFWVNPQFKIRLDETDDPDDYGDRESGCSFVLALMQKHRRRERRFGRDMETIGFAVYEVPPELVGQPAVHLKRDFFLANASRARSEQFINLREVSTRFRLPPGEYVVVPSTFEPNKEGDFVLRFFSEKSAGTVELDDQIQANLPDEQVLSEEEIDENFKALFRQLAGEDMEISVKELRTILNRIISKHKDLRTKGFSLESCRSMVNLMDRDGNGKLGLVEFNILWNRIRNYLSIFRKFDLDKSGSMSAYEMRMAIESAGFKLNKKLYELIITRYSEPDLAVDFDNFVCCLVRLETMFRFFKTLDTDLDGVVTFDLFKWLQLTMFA
T1 sequence (P04632 1-268 partner): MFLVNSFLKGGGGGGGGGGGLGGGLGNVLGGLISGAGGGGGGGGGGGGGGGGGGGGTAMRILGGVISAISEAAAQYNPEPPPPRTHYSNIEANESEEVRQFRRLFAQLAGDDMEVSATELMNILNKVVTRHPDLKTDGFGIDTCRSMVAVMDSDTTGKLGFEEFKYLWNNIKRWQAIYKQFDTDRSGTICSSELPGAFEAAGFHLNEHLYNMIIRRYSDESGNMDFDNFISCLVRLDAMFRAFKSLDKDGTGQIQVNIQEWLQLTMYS
In short: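 Human μ-calpain (0.5 μg) with 250 μM Suc-Leu-Tyr-AMC in 100 mM imidazole pH 7.5, 5 mM cysteine, 5 mM CaCl2. AMC fluorescence (ex 360/em 440 nm) followed 30 min at 30 °C; IC50 determined graphically from initial velocities versus inhibitor concentration.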

mdx mouse = assay: Longterm treatment of mdx mice (model for Duchenne Muscular Dystrophy); assay type: in vivo; conditions: 10 mg/kg/day i.p., 4 weeks, vs vehicle mdx mice
Method: The mdx mouse is a well established animal model for Duchenne Muscular Dystrophy (Bulfield G., Siller W. G., Wight P. A., Moore K. J., X chromosome-linked muscular dystrophy (mdx) in the mouse, Proc. Natl. Acad. Sci. USA., 1984, 81(4), 1189-1192). Selected compounds were tested in longterm treatments of mdx mice, according to the procedures described below.
Mouse strains: C57BL/10scsn and C57BL/10scsn mdx mouse strains were purchased at The Jackson Laboratory (ME, USA) and bred inhouse. Mouse males were sacrificed at the age of 3 or 7 weeks by CO2 asphyxiation.
Treatment: Compounds were dissolved in 50% PEG, 50% saline solution and applied by i.p. injection.
Histology: Tibialis anterior (TA) and diaphragm (Dia) muscles were collected and mounted on cork supports using gum tragacanth (Sigma-Aldrich, Germany). The samples were snap-frozen in melting isopentane and stored at −80° C. 12 μm thick cryosections of the mid-belly region of muscles were prepared. For staining, sections were air dried and fixed with 4% PFA in PBS for 5 minutes, washed 3 times with PBS and incubated over night at 4° C. in PBS containing 2 μg/ml Alexa Fluor™ 488 conjugated wheat-germ agglutinin (WGA-Alexa, Molecular Probes, Eugen, Oreg., USA) to stain membrane-bound and extracellular epitopes and 1 μg/ml 4′,6-diamidino-2-phenylindole (DAPI; Molecular Probes) to stain nuclei.
Image acquisition and analysis: Fluorescence microscopy images of both labels were acquired using a digital camera (ColorView II, Soft Imaging System, Munster, Germany) coupled to a fluorescence microscope (Vanox S, Olympus, Tokyo, Japan). Combination of these two stainings to a composite image, assembling of several images to a complete image of the entire muscle cross-section and further semi-automated analysis was performed using the image analysis program AnalySIS (Soft Imaging System). Image analysis of 1200-2900 muscle fibers in each section was performed in three steps: 1) determination of the muscle fiber boundaries, 2) determination of the muscle fiber size, and 3) determination of the percentage of muscle fibers containing centralized nuclei. Six different geometrical parameters were tested for the determination of the muscle fiber size: (a) the “minimal feret” (the minimum distance of parallel tangents at opposing borders of the muscle fiber), (b) the “area”, (c) the “minimal inner diameter” (the minimum diameter through the center of the muscle fiber), (d) the “minimal diameter” (the minimum diameter of a muscle fiber for angles in the range 0° through 179° with step width 1°, (e) the “minimal outer diameter” (the minimum diameter through the muscle fiber from outer border to outer border), and (f) the “perimeter”. The variance coefficient of the muscle fiber size is defined as follows: variance coefficient=(standard deviation of the muscle fiber size/mean of the muscle fiber size of the section)*1000. For statistical analysis of different variance coefficient values Mann-Whitney U test was used.
Selected Examples of the present invention were active in the mdx mouse model at 10 mg/kg/day, using 3 week old mice and a treatment period of 4 weeks (N=5−10).

Structure (SMILES): CCNC(=O)C(=O)[C@H](Cc1ccc(Br)cc1)NC(=O)[C@H](CC(C)C)NC(=O)CCCCC1CCSS1 (some centres unmarked) [Example 64]
- IC50 (human μ-calpain): 25 nM
- decrease in the variance coefficient of the muscle fiber size (mdx mouse; Dia (diaphragm)): 29%
- reduction of percentage of centralized nuclei (mdx mouse; Dia (diaphragm)): 61%
- decrease in the variance coefficient of the muscle fiber size (mdx mouse; TA (tibialis anterior)): 43%
- reduction of percentage of centralized nuclei (mdx mouse; TA (tibialis anterior)): 28%
